The values that follow come from US7304092B1, “Compounds and methods for treating tumors, cancer and hyperproliferative diseases” (Yale University, priority 2002, dated 2007).

“Also recorded” adds a separate entry of the source.

The test system of assay [1] is 32DtetP210Bcr-Abl cells (32D-bcr-abl). In words: Low cell density cell proliferation / cell death assay, bcr-abl dependent cells. It counts as cell-based, murine. As to conditions: for activity (death of 32D-bcr-abl cells) / selectivity (32D-bcr-abl over control cells): result in words; for activity (death of 32D-bcr-abl cells): structure-activity comparison; for selectivity (32D-bcr-abl over control cells): versus control 32D cell line; for activity / selectivity: in words; for inhibition of the 32DtetP210bcrabl cell line: 1 micromolar, FIG. 13, in words. The procedure:
(§1) The acetylenes were prepared by deprotonation of a propiolate (either methyl or tert-butyl) with n-butyllithium and subsequent reaction with an isocyanate (FIG. 4). Modifications may be readily made following the aforementioned schemes. The furan and acetylene libraries were both tested for activity in a cell-based assay where the death of engineered murine myeloid cells (32D-bcr-abl), the survival of which depends on the activity of bcr-abl tyrosine kinase, was sought.
(§2) The biological activity of these compounds was evaluated in two ways, a murine cell line differential proliferation assay and a NCI 60 human carcinoma cell-line growth inhibition and cell death assay. The murine cell death assays were performed using a p210bcrabl transformed 32D murine cell line. […] The NCl assay was performed in the Developmental Therapeutics Program at the National Cancer Institute. This assay measures the inhibition of cell growth and cell death from sixty different human carcinomas.
(§3) The furan and acetylene libraries were both tested for activity in a cell-based assay where the death of engineered murine myeloid cells (32D-bcr-abl), the survival of which is depends on the activity of bcr-abl tyrosine kinase, was sought.
(§4) Low cell density high throughput cell proliferation assay Between 50 and 100 32D and 32DtetP210Bcr-Abl cells in 100 microliters of medium without serum were exposed to the test compound for 15 minutes. An equal volume of 20% serum supplemented tissue culture medium was then added and the cells were inoculated in single well in 32 wells of a 96 well plate. The endpoint of the assay was the fraction of the 32 wells in which a cell pellet was seen to develop which was filled with live cells. This assay is subject to automated screening by a plate reader for the cell pellet. We used this high throughput assay to screen for compounds that suppress the growth of the 32DtetP210Bcr-Abl cell line in the absence of IL-3, but allow the growth of the 32D cell line in the presence of IL-3. Various concentrations of each compound were tested.

The next assay relates to 32D cells. Kind of assay: Low cell density cell proliferation assay, control cell line. The class given is cell-based, murine. Conditions: for control cells surviving: 100 nM. On the procedure: as §1
as §2, with “carcinomas. Both the acetylene and furan structural cores represent novel chemical entities with no prior reports of biological activity. […] At present, the use of these compounds is to be preferred in the treatment of tumors and cancer.” for “carcinomas.”
as §3, §4

For assay [2], the system named is 60 human carcinoma cell lines. Kind of assay: NCI 60 human carcinoma cell-line growth inhibition and cell death assay, whole panel. The class given is cell-based. The procedure:
as §2, with “carcinomas. Both the acetylene and furan structural cores represent novel chemical entities with no prior reports of biological activity. […] At present, the use of these compounds is to be preferred in the treatment of tumors and cancer.” for “carcinomas.”
(§5) In order to obtain additional information about the behavior of our compounds in cancerous cells, 18 compounds were submitted to and accepted by the NCl for testing on 60 human carcinoma cell lines as set forth in the examples section. This would confirm the activity seen in our cell-based assay and maybe give an insight into the mechanism of action and biological target of the acetylene/furan compounds. […] As a result, K1P was singled out by the NCl for further testing: MTD (Maximum Tolerated Dose) and murine hollow fiber in vivo assay. These are being carried out at the present time, along with testing of furans AN7A and AN7B in the 60 human cancer cell lines. […]

Assay [3] concerns carcinoma and model carcinoma cell lines. In words: Summary of activity in the cell line assays. The class given is cell-based. Conditions: in words. The procedure: as §2, with “carcinomas. Both the acetylene and furan structural cores represent novel chemical entities with no prior reports of biological activity. […] At present, the use of these compounds is to be preferred in the treatment of tumors and cancer.” for “carcinomas.”

In another assay the target is T1, CDK2/cyclinA (Homo sapiens, UniProt P24941).
T1 construct: purchased Upstate Biotechnologies, Lake Placid, N.Y
In words: Cell free kinase inhibition assay. It counts as biochemical. The procedure: (§6) Cell Free Kinase Inhibition Assay. A panel of 60 kinases (Upstate Biotechnologies, Lake Placid, N.Y.) were analyzed in in vitro cell free kinase assays.

A further assay concerns CK1. Kind of assay: Cell free kinase inhibition assay. It counts as biochemical. On the procedure:
as §6

The subject of the next assay is CaMKII. Kind of assay: Cell free kinase inhibition assay. The class given is biochemical. The procedure:
as §6

A further assay has as its target T2, CaMKIV (Homo sapiens, UniProt Q16566).
T2 construct: purchased Upstate Biotechnologies, Lake Placid, N.Y
T2 sequence (Q16566 1-473): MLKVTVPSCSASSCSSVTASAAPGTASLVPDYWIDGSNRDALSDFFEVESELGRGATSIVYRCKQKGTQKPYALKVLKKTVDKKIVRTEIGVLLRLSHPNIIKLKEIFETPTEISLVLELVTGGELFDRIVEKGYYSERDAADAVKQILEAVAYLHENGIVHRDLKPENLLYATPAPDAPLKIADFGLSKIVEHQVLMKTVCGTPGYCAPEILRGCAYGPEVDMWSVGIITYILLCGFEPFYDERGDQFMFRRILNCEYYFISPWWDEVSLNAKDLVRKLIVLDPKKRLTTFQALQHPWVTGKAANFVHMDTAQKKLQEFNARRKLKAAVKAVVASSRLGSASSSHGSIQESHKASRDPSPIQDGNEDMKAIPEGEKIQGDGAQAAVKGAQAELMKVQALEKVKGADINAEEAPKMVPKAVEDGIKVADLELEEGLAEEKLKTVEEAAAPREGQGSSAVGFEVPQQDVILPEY
Kind of assay: Cell free kinase inhibition assay. It counts as biochemical. The procedure: as §6

The next assay has as its target T3, Fyn (Homo sapiens, UniProt P06241).
T3 construct: purchased Upstate Biotechnologies, Lake Placid, N.Y
In words: Cell free kinase inhibition assay. The class given is biochemical. On the procedure: as §6

A further assay deals with T4, IKKBeta (Homo sapiens, UniProt O14920).
T4 construct: purchased Upstate Biotechnologies, Lake Placid, N.Y
T4 sequence (O14920 1-756): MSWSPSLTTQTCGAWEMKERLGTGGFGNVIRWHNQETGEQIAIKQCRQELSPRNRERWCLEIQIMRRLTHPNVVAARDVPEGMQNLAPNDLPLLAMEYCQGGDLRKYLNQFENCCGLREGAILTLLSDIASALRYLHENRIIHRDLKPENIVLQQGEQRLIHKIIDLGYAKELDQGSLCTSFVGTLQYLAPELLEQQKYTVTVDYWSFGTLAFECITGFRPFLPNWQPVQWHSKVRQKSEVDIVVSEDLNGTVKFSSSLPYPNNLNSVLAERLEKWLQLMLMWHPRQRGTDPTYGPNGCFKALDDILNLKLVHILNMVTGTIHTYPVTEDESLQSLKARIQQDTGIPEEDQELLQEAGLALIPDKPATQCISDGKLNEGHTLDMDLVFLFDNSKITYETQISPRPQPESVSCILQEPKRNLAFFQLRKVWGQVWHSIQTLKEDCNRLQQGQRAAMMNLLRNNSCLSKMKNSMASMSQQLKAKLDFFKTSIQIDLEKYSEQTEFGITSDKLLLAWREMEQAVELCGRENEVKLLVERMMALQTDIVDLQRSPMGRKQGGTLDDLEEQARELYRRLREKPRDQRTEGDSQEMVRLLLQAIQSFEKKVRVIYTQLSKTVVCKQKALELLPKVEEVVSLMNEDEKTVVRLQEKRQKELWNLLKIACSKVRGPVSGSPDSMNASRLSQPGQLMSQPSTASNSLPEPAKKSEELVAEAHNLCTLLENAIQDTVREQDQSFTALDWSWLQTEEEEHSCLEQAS
In words: Cell free kinase inhibition assay. The class given is biochemical. The procedure:
as §6

The target of a further assay is T5, Lyn (Homo sapiens, UniProt P07948).
T5 construct: purchased Upstate Biotechnologies, Lake Placid, N.Y
Kind of assay: Cell free kinase inhibition assay. It counts as biochemical. On the procedure: as §6

The target in another assay is T6, PKCbII (Homo sapiens, UniProt P05771).
T6 construct: purchased Upstate Biotechnologies, Lake Placid, N.Y
Kind of assay: Cell free kinase inhibition assay. It counts as biochemical. The procedure:
as §6

For the next assay, the target named is T7, PKCy (Homo sapiens, UniProt P05129).
T7 construct: purchased Upstate Biotechnologies, Lake Placid, N.Y
In words: Cell free kinase inhibition assay. It counts as biochemical. On the procedure: as §6

The next assay has as its system leukemia cell lines. Kind of assay: NCI 60 human carcinoma cell-line growth inhibition assay, leukemia panel. The class given is cell-based. As to conditions: span over the lines. The procedure:
as §2, with “carcinomas. Both the acetylene and furan structural cores represent novel chemical entities with no prior reports of biological activity. […] At present, the use of these compounds is to be preferred in the treatment of tumors and cancer.” for “carcinomas.”
as §5

For the next assay, the system named is renal cell lines. In words: NCI 60 human carcinoma cell-line growth inhibition assay, renal panel. It counts as cell-based. Conditions: span over the lines. On the procedure: as §2, with “carcinomas. Both the acetylene and furan structural cores represent novel chemical entities with no prior reports of biological activity. […] At present, the use of these compounds is to be preferred in the treatment of tumors and cancer.” for “carcinomas.”
as §5

T3 sequence (P06241 whole entry, species assumed): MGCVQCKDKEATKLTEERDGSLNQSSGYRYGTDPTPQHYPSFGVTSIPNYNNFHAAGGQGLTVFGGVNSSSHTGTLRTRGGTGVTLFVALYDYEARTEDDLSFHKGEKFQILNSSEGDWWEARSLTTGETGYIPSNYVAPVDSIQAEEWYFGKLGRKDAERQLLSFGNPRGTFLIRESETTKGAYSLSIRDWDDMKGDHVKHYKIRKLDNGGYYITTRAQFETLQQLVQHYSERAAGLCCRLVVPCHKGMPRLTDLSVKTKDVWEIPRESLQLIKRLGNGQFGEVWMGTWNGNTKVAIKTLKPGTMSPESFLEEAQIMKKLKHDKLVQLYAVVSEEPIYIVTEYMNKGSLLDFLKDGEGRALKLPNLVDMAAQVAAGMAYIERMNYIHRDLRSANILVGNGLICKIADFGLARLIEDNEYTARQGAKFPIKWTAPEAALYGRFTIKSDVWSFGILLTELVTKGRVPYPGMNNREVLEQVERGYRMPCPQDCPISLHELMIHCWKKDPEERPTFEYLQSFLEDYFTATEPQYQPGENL
T6 sequence (P05771 1-673 isoform P05771-2): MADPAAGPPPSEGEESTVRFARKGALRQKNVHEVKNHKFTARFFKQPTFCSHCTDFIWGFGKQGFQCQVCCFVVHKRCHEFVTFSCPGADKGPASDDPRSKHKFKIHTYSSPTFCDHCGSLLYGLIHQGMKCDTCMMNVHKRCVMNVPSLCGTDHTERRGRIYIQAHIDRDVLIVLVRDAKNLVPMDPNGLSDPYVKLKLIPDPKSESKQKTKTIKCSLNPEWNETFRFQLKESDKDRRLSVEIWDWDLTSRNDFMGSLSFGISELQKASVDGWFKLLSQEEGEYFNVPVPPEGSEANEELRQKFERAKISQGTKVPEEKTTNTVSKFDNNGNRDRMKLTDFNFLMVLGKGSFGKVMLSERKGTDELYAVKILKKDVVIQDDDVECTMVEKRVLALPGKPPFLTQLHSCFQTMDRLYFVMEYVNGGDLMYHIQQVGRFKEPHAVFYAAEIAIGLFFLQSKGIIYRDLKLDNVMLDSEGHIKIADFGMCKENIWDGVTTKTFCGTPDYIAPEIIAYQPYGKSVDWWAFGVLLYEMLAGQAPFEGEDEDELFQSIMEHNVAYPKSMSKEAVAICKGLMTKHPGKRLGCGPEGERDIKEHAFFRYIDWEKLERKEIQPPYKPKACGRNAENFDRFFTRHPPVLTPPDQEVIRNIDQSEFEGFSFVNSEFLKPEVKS
T5 sequence (P07948 whole entry, species assumed): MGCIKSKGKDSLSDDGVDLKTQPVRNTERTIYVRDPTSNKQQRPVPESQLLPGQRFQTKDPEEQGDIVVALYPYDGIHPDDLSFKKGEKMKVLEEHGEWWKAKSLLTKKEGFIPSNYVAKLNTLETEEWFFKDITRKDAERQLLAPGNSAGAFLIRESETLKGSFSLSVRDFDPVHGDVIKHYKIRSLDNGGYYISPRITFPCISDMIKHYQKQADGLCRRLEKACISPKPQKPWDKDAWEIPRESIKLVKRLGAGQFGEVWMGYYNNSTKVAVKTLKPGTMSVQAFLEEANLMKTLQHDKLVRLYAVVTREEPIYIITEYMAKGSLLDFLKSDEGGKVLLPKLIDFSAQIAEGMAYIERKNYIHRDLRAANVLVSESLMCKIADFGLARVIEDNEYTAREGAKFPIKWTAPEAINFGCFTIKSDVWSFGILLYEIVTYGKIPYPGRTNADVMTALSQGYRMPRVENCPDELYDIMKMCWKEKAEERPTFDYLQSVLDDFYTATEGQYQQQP

`CC(C)(C)OC(=O)C#CC(=O)NC1CCCCC1` [AC1] displayed a leukemic cells surviving in assay [1] (100 nM) of 50%. In the assay with 32D cells, the control cells surviving worked out at 100%.

With `COC(=O)C#CC(=O)Nc1ccc(OC)cc1` [AC3], in assay [1], the “activity (death of 32D-bcr-abl cells)” value was “decreased activity and selectivity dramatically”; the “selectivity (32D-bcr-abl over control cells)” value is “decreased activity and selectivity dramatically”.

Take `COC(=O)C#CC(=O)Nc1ccccc1` [AC6]: in [1], the “activity (death of 32D-bcr-abl cells)” value was “increased both selectivity and activity”; the “selectivity (32D-bcr-abl over control cells)” value is “increased both selectivity and activity”.

For `COC(=O)C#CC(=O)Nc1c(F)cccc1F` [AC9], in [1], the “activity (death of 32D-bcr-abl cells)” value was “inactive”.

For the molecule `COC(=O)C#CC(=O)Nc1c(C(C)C)cccc1C(C)C` [AC10], in [1], the “activity (death of 32D-bcr-abl cells)” value is “moderate activity” and the “selectivity (32D-bcr-abl over control cells)” value is listed as “no selectivity”.

As to `COC(=O)C#CC1CCCCC1` [AC11], in assay [1], the “activity (death of 32D-bcr-abl cells)” value is listed as “little or no activity”.

Regarding `COC(=O)C#CC(=O)NCc1ccccc1` [AC13], in assay [1], the “activity (death of 32D-bcr-abl cells)” value is “active” and the “selectivity (32D-bcr-abl over control cells)” value is recorded as “little selectivity”.

For `COC(=O)C#CC(=O)Nc1cccc(OC)c1` [AC15], in [1] (1 uM level), the activity entry is “activity was regained” and the selectivity result is reported as “selectivity remained low”.

Turning to `COC(=O)C#CC(=O)Nc1ccccc1OC` [AC16], in [1] (1 uM level), the activity entry was “activity was regained” and the selectivity entry was “selectivity remained low”.

As to `COC(=O)C#CC(=O)Nc1cc(OC)cc(OC)c1` [AC17], in assay [1] (1 uM level), the activity result was “activity was regained” and the selectivity entry is recorded as “selectivity remained low”.

As to `COC(=O)C#CC(=O)Nc1ccc2ccccc2c1` [AC19], in [1] (100 nM), the activity entry is reported as “excellent activity” and the selectivity result is on record as “shows selectivity”. The “concentration below which no activity was shown” value in [2] (NCI 60 cell lines) was at least 10 µM. Besides, the “activity against carcinoma and model carcinoma cell lines” value in assay [3] is “good activity”.

As to `COC(=O)C#CC(=O)Nc1ccc(-c2ccccc2)cc1` [AC21], in assay [1] (100 nM), the activity result is listed as “excellent activity” and the selectivity entry is given as “only AC19 shows selectivity”.

As a reminder, the inhibition is the change of the read-out against control, counted positive when it falls. Broadly, the % Inhibition is the drop in the measured response relative to a control, in per cent. Lower therefore signals a weak effect. The GI50 is the concentration giving 50% growth inhibition. High values mean lower sensitivity of the cells, low ones greater sensitivity of the cells. As to `COC(=O)C#CC(=O)Nc1ccc(Oc2ccccc2)cc1` [AC22], the activity entry was “not active” in assay [1] (10 nM) and “excellent activity; also recorded: very active” in assay [1] (100 nM). The selectivity entry in assay [1] (100 nM) is given as “not selective”. Besides, the “inhibition of the 32DtetP210bcrabl cell line” value in assay [1] is on record as “inhibitory”. In [1] (Mus musculus, 10 nanomolar of each drug, 32DtetP210bcrabl cell line, read-out: inhibition of P210bcrabl dependent cell growth), the inhibition at 0.01 µM came to 10%. The “inhibition of the 32Dtet cell line” value in the assay with 32D cells (similar concentration (1 micromolar), in words) is given as “inhibits”. Further, the inhibition at 10 µM on CDK2/cyclinA was 50%; on CaMKIV, 64%; against Fyn, 29%; against IKKBeta, 45%; against Lyn, 98%; against PKCbII, 48%. This molecule also registered an inhibition at 10 µM against PKCy of 61%. Besides, the “% Inhibition at 10 μM” value was “(37) %” in the assay with CK1 and 40% with CaMKII. Besides, the GI50 with leukemia cell lines fell in the range of 2.6 to 7.3 µM. Moreover, the “activity against carcinoma and model carcinoma cell lines” value in [3] is reported as “good activity”.

For the molecule `COC(=O)C#CC(=O)NC1CCCCC1` [K1P], the leukemic cells surviving in assay [1] (100 nM) turned out to be 50%. The “inhibition of the 32DtetP210bcrabl cell line” value in assay [1] was “inhibitory”. This molecule displayed a control cells surviving in the assay with 32D cells of 100%. Also, the “% Inhibition at 10 μM” value in the assay with CK1 is 46%. Further, the inhibition at 10 µM on Fyn was 49%; against PKCbII, 35%. Besides, the GI50 with leukemia cell lines was in the range of 0.8 to 5 µM; with renal cell lines it was 2500 to 2700 nM. For the same molecule, the “activity in the NCI cell lines” value in assay [2] (certain leukemia, colon cancer, melanoma, renal cancer cell lines and a breast cancer cell line, in words) is “enhanced activity”. For the same molecule, in assay [3], the “activity against carcinoma and model carcinoma cell lines” value was “good activity”.

As to `Cc1ccc(NC(=O)c2ccc(CN3CCN(C)CC3)cc2)cc1Nc1nccc(-c2cccnc2)n1` [STI-571, reference compound], the control cells alive entry with 32D cells (10 nM, in words) is reported as “all the control cells are still alive”.
